Experimental data reported in patent US4847268A, “8-phenylthio-tetrahydroquinolines and anti-allergic use thereof” (Roussel Uclaf, priority 1986, dated 1989).
Counter-ions that a name gives are not always drawn.

Experiments:
5-lipoxygenase = molecular target: T1, 5-lipoxygenase (Rattus norvegicus, UniProt P12527); experiment: 5-LIPOX: inhibition of Ca++ ionophore (A23187)-induced release of 5-lipoxygenase products from [14C]-arachidonic acid pre-labelled rat peritoneal neutrophils; type: cell-based; conditions: A23187-induced release of leukotriene D4 and 5-HETE, determined graphically from dose-response curves, read-out: 5-LIPOX: concentration of test compound causing 50% inhibition of control response
T1 construct: pre-labelled rat peritoneal neutrophils; endogenous in cells; host or cells: rat peritoneal neutrophils
T1 sequence (P12527 1-673): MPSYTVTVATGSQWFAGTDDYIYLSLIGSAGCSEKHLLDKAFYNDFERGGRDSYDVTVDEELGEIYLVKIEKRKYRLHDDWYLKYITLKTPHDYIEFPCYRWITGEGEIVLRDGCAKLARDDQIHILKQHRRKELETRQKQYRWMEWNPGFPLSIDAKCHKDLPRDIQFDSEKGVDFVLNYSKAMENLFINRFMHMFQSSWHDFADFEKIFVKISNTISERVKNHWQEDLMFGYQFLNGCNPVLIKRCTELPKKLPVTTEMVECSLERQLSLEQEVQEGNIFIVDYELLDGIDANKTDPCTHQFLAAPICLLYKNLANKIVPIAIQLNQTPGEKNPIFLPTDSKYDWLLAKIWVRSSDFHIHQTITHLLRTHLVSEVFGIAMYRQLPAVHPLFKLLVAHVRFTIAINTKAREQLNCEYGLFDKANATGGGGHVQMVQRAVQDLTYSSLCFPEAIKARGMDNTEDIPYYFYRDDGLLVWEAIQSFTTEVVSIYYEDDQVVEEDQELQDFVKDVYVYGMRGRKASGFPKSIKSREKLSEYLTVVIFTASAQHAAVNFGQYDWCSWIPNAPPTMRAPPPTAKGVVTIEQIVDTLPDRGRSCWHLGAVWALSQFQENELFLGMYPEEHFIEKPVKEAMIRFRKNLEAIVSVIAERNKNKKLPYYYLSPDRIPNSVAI
Text: A. 5-LIPOX Inhibition of the Ca^++ ionophore (A23187)-induced release of 5-lipoxygenase products ([…] and 5-HETE) from [^14 C]-arachidonic acid pre-labelled rat peritoneal neutrophils. Assayed by a modification of the method reported by Ahnfelt-Ronne et al [Biochemical Pharmacology, Vol. 31, No. 16, pp. 2619-2624 (1982)]. The data presented are micromolar concentrations of test compound causing 50% inhibition of control response determined graphically from dose-response curves.

LTD4 receptor = molecular target: T2, LTD4 receptor (Cavia porcellus, UniProt Q2NNR5); experiment: LTD4 RECEPTOR: inhibition of specific binding of [3H]-LTD4 to a membrane preparation of guinea-pig lung tissue; conditions: [3H]-LTD4, guinea-pig lung membrane preparation; determined graphically from dose-response curves; read-out: LTD4 receptor: concentration of test compound causing 50% inhibition of specific binding
T2 construct: a membrane preparation of guinea-pig lung tissue; from tissue; host or cells: guinea-pig lung membranes
T2 sequence (Q2NNR5 1-340): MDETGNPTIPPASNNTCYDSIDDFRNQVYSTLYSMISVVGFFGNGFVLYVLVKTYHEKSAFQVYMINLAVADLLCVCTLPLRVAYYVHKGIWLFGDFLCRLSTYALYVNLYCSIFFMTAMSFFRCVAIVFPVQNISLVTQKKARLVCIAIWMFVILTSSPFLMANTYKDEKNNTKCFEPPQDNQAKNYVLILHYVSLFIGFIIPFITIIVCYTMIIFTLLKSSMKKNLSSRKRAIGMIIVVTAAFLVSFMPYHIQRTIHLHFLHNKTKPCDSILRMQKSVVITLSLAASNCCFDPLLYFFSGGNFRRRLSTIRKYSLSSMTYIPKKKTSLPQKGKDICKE
Text: B. LTD4 RECEPTOR Inhibition of the specific binding of [^3 H]-LTD4 to a membrane preparation of guinea-pig lung tissue assayed by a modification of a method reported by Bruns et al [Life Sciences, Vol. 33, pp. 645-653 (1983)]. The data presented are micromolar concentrations of test compound causing 50% inhibition of specific binding determined graphically from dose-response curves.

Row | IC50 (5-lipoxygenase) | IC50 (LTD4 receptor) | SMILES
1 | 33 µM |  | O=[N+]([O-])c1cc(SC2CCCc3cccnc32)ccc1O (stereo not shown) [Example 21, 8-(4-hydroxy-3-nitrophenylthio)-5,6,7,8-tetrahydroquinoline]
2 | 14.1 µM |  | Oc1ccc(SC2CCCc3cccnc32)cc1 (stereo not shown) [Example 8, 8-(4-hydroxyphenylthio)-5,6,7,8-tetrahydroquinoline]
3 | 3 µM | 23.4 µM | Cc1ccc(SC2CCCc3cccnc32)cc1 (stereo not shown) [Example 5, 8-(4-methylphenylthio)-5,6,7,8-tetrahydroquinoline hydrochloride]
4 | 4.2 µM | 22.4 µM | Clc1ccc(SC2CCCc3cccnc32)cc1 (stereo not shown) [Example 1, 8-(4-chlorophenylthio)-5,6,7,8-tetrahydroquinoline hydrochloride]
5 | 1.9 µM |  | CCCCc1ccc(SC2CCCc3cccnc32)cc1 (stereo not shown) [Example 10, 8-(4-n-butylphenylthio)-5,6,7,8-tetrahydroquinoline hydrochloride]
6 | 12.6 µM | 26.3 µM | O=[N+]([O-])c1ccc(SC2CCCc3cccnc32)cc1 (stereo not shown) [Example 4, 8-(4-nitrophenylthio)-5,6,7,8-tetrahydroquinoline hydrochloride]
7 | 11.2 µM |  | CCOc1ccc(SC2CCCc3cccnc32)cc1 (stereo not shown) [Example 18, 8-(4-ethoxyphenylthio)-5,6,7,8-tetrahydroquinoline hydrochloride]
8 | 5.6 µM |  | CCCCCC(O)c1cccc(SC2CCCc3cccnc32)c1 (stereo not shown) [Example 11, 8[3-(1-hydroxyhexyl)-phenylthio]-5,6,7,8-tetrahydroquinoline]
9 | 31 µM |  | N#Cc1ccc(SC2CCCc3cccnc32)cc1 (stereo not shown) [Example 2, 4-(5,6,7,8-tetrahydroquinoline-8-ylthio)-benzonitrile]
10 | 25 µM | > 100 µM | Nc1ccc(SC2CCCc3cccnc32)cc1 (stereo not shown) [Example 7, 8-(4-aminophenylthio)-5,6,7,8-tetrahydroquinoline]
11 | 1.7 µM | 52.5 µM | c1cnc2c(c1)CCCC2Sc1cccc2ccccc12 (stereo not shown) [Example 6, 8-(1-naphthylthio)-5,6,7,8-tetrahydroquinoline]
12 | 4 µM |  | CCc1ccc(SC2CCCc3cccnc32)cc1 (stereo not shown) [Example 15, 8-(4-ethylphenylthio)-5,6,7,8-tetrahydroquinoline hydrochloride]
13 | > 100 µM |  | O=C(O)c1ccc(SC2CCCc3cccnc32)cc1 (stereo not shown) [Example 16, 4-(5,6,7,8-tetrahydroquinoline-8-ylthio)-benzoic acid]
14 | 13.2 µM | 16.6 µM | COc1ccc(SC2CCCc3cccnc32)cc1 (stereo not shown) [Example 14, 8-(4-methoxyphenylthio)-5,6,7,8-tetrahydroquinoline hydrochloride]
15 | 2.3 µM |  | c1cnc2c(c1)CCCC2Sc1ccc2ccccc2c1 (stereo not shown) [Example 9, 8-(2-naphthylthio)-5,6,7,8-tetrahydroquinoline hydrochloride]
16 | 26 µM |  | NS(=O)(=O)c1ccc(SC2CCCc3cccnc32)cc1 (stereo not shown) [Example 12, 4-(5,6,7,8-tetrahydroquinoline-8-ylthio)-benzenesulfonamide]
17 | 18.6 µM |  | COC(=O)c1ccc(SC2CCCc3cccnc32)cc1 (stereo not shown) [Example 20, Methyl 4-(5,6,7,8-tetrahydroquinoline-8-ylthio)-benzoate hydrochloride]

Row | SMILES | IC50 (5-lipoxygenase) | IC50 (LTD4 receptor)
18 | CC(=O)Oc1ccc(SC2CCCc3cccnc32)cc1 (stereo not shown) [Example 19, 8-(4-acetoxyphenylthio)-5,6,7,8-tetrahydroquinoline hydrochloride] | 45 µM | 
19 | CCCCOc1ccc(SC2CCCc3cccnc32)cc1 (stereo not shown) [Example 17, 8-(4-n-Butoxyphenylthio)-5,6,7,8-tetrahydroquinoline hydrochloride] | 3.7 µM | 
